For 20 compounds, Kd results are on record in patent US20250059188A1, “ARYLSULPHONAMIDE COMPOUNDS” (Anaxis Pharma Pty Ltd, priority 2021, published 2025).

Holding throughout (details): equilibrium dissociation constant
One test concerns the target human RIPK3 (Homo sapiens (Human), UniProt Q9Y572). The experiment in a line: KINOMEscan binding assay, human RIPK3. Here is the method:
(§1) Binding affinity of the test compounds for human MLKL (full length), mouse MLKL (full length), human RIPK1 and human RIPK3 was determined using the KINOMEscan™ technology developed by DiscoverX (USA; http://www.discoverx.com). The assay was conducted according to manufacturer instructions.
(§2) Kinase assays. For most assays, kinase-tagged T7 phage strains were grown in parallel in 24-well blocks in an E. coli host derived from the BL21 strain. E. coli were grown to log-phase and infected with T7 phage from a frozen stock (multiplicity of infection=0.4) and incubated with shaking at 32° C. until lysis (90-150 minutes). The lysates were centrifuged (6,000×g) and filtered (0.2 μm) to remove cell debris. The remaining kinases were produced in HEK-293 cells and subsequently tagged with DNA for qPCR detection. […] The liganded beads were blocked with excess biotin and washed with blocking buffer (SeaBlock (Pierce), 1% BSA, 0.05% Tween 20, 1 mM DTT) to remove unbound ligand and to reduce non-specific phage binding. […] All reactions were performed in polypropylene 384-well plates in a final volume of 20 μL. […] The kinase concentration in the eluates was measured by qPCR.
(§3) An 11-point 3-fold serial dilution of each test compound was prepared in 100% DMSO at 100× final test concentration and subsequently diluted to 1× in the assay (final DMSO concentration=1%). Most Kos were determined using a compound top concentration=30,000 nM.
(§4) KD for each test compound was calculated with a standard dose-response curve using the Hill equation (equation (1)): […]
(§5) The Hill Slope was set to −1.
(§6) Curves were fitted using a non-linear least square fit with the Levenberg-Marquardt algorithm.

For a further test, the target named is human RIPK1 (Homo sapiens (Human), UniProt Q13546). The experiment in a line: KINOMEscan binding assay, human RIPK1. As for the experimental part: as §1, §2, §3, §4, §5, §6
Chain of human RIPK1 (Q13546 whole entry): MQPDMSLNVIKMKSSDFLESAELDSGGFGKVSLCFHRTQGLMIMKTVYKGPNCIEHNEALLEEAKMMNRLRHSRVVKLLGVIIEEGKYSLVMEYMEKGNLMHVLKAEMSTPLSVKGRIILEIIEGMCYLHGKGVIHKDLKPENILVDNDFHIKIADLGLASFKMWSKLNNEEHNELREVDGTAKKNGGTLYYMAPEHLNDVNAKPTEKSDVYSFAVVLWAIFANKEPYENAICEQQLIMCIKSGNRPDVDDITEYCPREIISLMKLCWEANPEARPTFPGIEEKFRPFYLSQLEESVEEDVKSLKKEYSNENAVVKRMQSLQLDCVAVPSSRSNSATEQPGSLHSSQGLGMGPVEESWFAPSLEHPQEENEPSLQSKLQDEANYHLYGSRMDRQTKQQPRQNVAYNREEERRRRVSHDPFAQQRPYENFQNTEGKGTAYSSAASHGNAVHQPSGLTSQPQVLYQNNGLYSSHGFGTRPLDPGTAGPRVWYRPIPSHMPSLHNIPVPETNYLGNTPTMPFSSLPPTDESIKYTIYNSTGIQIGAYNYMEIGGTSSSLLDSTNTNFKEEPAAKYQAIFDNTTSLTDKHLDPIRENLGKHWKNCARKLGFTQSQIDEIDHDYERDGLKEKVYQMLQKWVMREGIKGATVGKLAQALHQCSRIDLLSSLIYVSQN
Another test deals with human MLKL (full length) (Homo sapiens (Human), UniProt Q8NB16). The experiment in a line: KINOMEscan binding assay, human MLKL (full length). Here is the method:
as §1, §2, §3, §4, §5, §6

For orientation: Kd means the constant that tells how readily two partners part at equilibrium. Read a high Kd as a looser complex.

Chain of human RIPK3 (Q9Y572 whole entry): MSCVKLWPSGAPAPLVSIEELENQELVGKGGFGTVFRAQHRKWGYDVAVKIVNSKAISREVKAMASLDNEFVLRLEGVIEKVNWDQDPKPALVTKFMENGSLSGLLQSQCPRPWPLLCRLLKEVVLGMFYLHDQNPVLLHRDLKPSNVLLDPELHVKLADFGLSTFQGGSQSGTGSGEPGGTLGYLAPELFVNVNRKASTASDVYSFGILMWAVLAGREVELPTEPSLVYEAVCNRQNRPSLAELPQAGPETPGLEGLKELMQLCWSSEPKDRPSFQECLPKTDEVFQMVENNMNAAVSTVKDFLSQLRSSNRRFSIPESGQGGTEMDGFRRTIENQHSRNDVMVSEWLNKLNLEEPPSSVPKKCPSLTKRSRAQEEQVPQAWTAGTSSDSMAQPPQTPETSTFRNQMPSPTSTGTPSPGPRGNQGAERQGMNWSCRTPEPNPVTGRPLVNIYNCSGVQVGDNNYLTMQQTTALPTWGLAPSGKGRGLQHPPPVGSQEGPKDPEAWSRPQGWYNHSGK
Chain of human MLKL (full length) (Q8NB16 whole entry): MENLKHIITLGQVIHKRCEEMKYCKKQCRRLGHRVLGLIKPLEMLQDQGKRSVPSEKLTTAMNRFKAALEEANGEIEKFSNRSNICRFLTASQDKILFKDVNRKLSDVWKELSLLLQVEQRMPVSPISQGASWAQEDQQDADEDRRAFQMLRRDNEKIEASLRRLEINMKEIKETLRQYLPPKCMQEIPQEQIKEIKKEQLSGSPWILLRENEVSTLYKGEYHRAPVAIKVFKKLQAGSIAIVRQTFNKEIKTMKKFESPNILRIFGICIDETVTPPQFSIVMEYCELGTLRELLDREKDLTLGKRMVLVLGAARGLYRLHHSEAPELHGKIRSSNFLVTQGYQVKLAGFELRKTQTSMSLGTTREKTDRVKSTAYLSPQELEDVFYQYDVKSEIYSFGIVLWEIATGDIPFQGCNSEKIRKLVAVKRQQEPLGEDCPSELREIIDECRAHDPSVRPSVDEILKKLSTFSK

Regarding `CCS(=O)(=O)Nc1ccc(-c2nn(C)c3c(NC(C)=O)cnc(N)c23)cc1OCc1ccc(F)cc1` [Compound 2, N-(4-amino-3-(4-(ethylsulfonamido)-3-((4-fluorobenzyl)oxy)phenyl)-1-methyl-1H-pyrazolo[4,3-c]pyridin-7-yl)acetamide], the Kd was > 10 µM at human RIPK3, > 10 µM on human RIPK1 and 0.001 to 0.1 µM at human MLKL (full length).

Turning to `CCS(=O)(=O)Nc1ccc(-c2coc3c(-c4cnn(CCO)c4)cnc(N)c23)cc1OCc1ccc(F)cc1` [Compound 4, N-(4-(4-amino-7-(1-(2-hydroxyethyl)-1H-pyrazol-4-yl)furo[3,2-c]pyridin-3-yl)-2-((4-fluorobenzyl)oxy)phenyl)ethanesulfonamide], the results for the Kd on human RIPK3, on human RIPK1 and on human MLKL (full length) were > 10 µM, > 10 µM and 0.001 to 0.1 µM, respectively.

As to `Nc1ncc(-c2cnn(CCO)c2)c2occ(-c3ccc(NS(=O)(=O)C(F)F)c(OCc4ccc(F)cc4)c3)c12` [Compound 6, N-(4-(4-amino-7-(1-(2-hydroxyethyl)-1H-pyrazol-4-yl)furo[3,2-c]pyridin-3-yl)-2-((4-fluorobenzyl)oxy)phenyl)-1,1-difluoromethanesulfonamide], the values for the Kd on human RIPK3, at human RIPK1 and on human MLKL (full length) were > 10 µM, > 10 µM and < 0.001 µM, respectively.

With `Cn1nc(-c2ccc(NS(=O)(=O)C(F)F)c(OCc3ccc(F)cc3)c2)c2c(N)nccc21` [Compound 10, N-(4-{4-amino-1-methyl-1H-pyrazolo[4,3-c]pyridin-3-yl}-2-[(4-fluorophenyl)methoxy]phenyl)-1,1-difluoromethanesulfonamide], the Kd was > 10 µM at human RIPK3, > 10 µM at human RIPK1 and 0.001 to 0.1 µM at human MLKL (full length).

For `C[C@H](Oc1cc(-c2nn(C)c3ccnc(N)c23)ccc1NS(=O)(=O)C(F)F)c1ccc(F)cc1` [Compound 17, N-(4-{4-amino-1-methyl-1Hpyrazolo[4,3-c]pyridin-3-yl}-2-[(1S)-1-(4-fluorophenyl)ethoxy]phenyl)-1,1-difluoromethanesulfonamide], the Kd on human RIPK3 was > 10 µM; at human RIPK1, > 10 µM; on human MLKL (full length), < 0.001 µM.

With `C[C@H](Oc1cc(-c2cnn3ccnc(N)c23)ccc1NS(=O)(=O)C(F)F)c1ccc(F)cc1` [Compound 22, (S)—N-(4-(4-aminopyrazolo[1,5-a]pyrazin-3-yl)-2-(1-(4-fluorophenyl)ethoxy)phenyl)-1,1-difluoromethanesulfonamide], the Kd on human RIPK3 was > 10 µM; on human RIPK1, > 10 µM; at human MLKL (full length) it was < 0.001 µM.

Regarding `Cc1noc(C)c1-c1cnc(N)c2c(-c3ccc(NS(=O)(=O)C(F)F)c(O[C@@H](C)c4ccc(F)cc4)c3)nn(C)c12` [Compound 33, (S)-N-(4-(4-amino-7-(3,5-dimethylisoxazol-4-yl)-1-methyl-1H-pyrazolo[4,3-c]pyridin-3-yl)-2-(1-(4-fluorophenyl)ethoxy)phenyl)-1,1-difluoromethanesulfonamide], the Kd was > 10 µM at human RIPK3, > 10 µM on human RIPK1 and 0.001 to 0.1 µM on human MLKL (full length).

For `C[C@H](Oc1cc(-c2nn(C)c3c(Cc4ccccc4)cnc(N)c23)ccc1NS(=O)(=O)C(F)F)c1ccc(F)cc1` [Compound 34, (S)-N-(4-(4-amino-7-benzyl-1-methyl-1H-pyrazolo[4,3-c]pyridin-3-yl)-2-(1-(4-fluorophenyl)ethoxy)phenyl)-1,1-difluoromethanesulfonamide], the figures for the Kd on human RIPK3, on human RIPK1 and on human MLKL (full length) were > 10 µM, > 10 µM and 0.001 to 0.1 µM, respectively.

Regarding `C[C@H](Oc1cc(-c2nn(C)c3c(-c4ccnc(N(C)C)c4)cnc(N)c23)ccc1NS(=O)(=O)C(F)F)c1ccc(F)cc1` [Compound 49, (S)-N-(4-(4-amino-7-(2-(dimethylamino)pyridin-4-yl)-1-methyl-1H-pyrazolo[4,3-c]pyridin-3-yl)-2-(1-(4-fluorophenyl)ethoxy)phenyl)-1,1-difluoromethanesulfonamide], the Kd is > 10 µM on human RIPK3, > 10 µM on human RIPK1 and 0.001 to 0.1 µM on human MLKL (full length).

In the case of `C[C@H](Oc1cc(-c2nn(C)c3c(C4=CCCNC4)cnc(N)c23)ccc1NS(=O)(=O)C(F)F)c1ccc(F)cc1` [Compound 54, (S)—N-(4-(4-amino-1-methyl-7-(1,2,5,6-tetrahydropyridin-3-yl)-1H-pyrazolo[4,3-c]pyridin-3-yl)-2-(1-(4-fluorophenyl)ethoxy)phenyl)-1,1-difluoromethanesulfonamide], the results for the Kd at human RIPK3, on human RIPK1 and on human MLKL (full length) were > 10 µM, > 10 µM and 0.001 to 0.1 µM, respectively.

Take `CCS(=O)(=O)Nc1ccc(-c2ncn3ccnc(N)c23)cc1OCc1ccc(F)cc1` [Compound 63, N-(4-(8-Aminoimidazo[1,5-a]pyrazin-1-yl)-2-((4-fluorophenyl)methoxy)phenyl) ethane-1-sulfonamide]: the figures for the Kd on human RIPK3, on human RIPK1 and at human MLKL (full length) were > 10 µM, > 10 µM and 0.1 to 10 µM, respectively.

With `CCS(=O)(=O)Nc1ccc(-c2cnn3ccnc(N)c23)cc1OCc1ccc(F)cc1` [Compound 64, N-(4-(4-Aminopyrazolo[1,5-a]pyrazin-3-yl)-2-((4-fluorophenyl)methoxy)phenyl)ethane-1-sulfonamide], the Kd on human RIPK3 was > 10 µM; at human RIPK1 it was > 10 µM; on human MLKL (full length), 0.1 to 10 µM.

For the compound `Nc1n[nH]c2ccnc(-c3ccc(NS(=O)(=O)CC(F)(F)F)c(OCc4ccc(F)cc4)c3)c12` [Compound 65, N-(4-(3-amino-1H-pyrazolo[4,3-c]pyridin-4-yl)-2-((4-fluorophenyl)methoxy)phenyl)-2,2,2-trifluoroethane-1-sulfonamide], the Kd was > 10 µM on human RIPK3, > 10 µM on human RIPK1 and 0.001 to 0.1 µM on human MLKL (full length).

Regarding `Nc1n[nH]c2nccc(-c3ccc(NS(=O)(=O)CC(F)(F)F)c(OCc4ccc(F)cc4)c3)c12` [Compound 67, N-(4-(3-Amino-1H-pyrazolo[3,4-b]pyridin-4-yl)-2-((4-fluorophenyl)methoxy)phenyl)-2,2,2-trifluoroethane-1-sulfonamide], the values for the Kd on human RIPK3, on human RIPK1 and at human MLKL (full length) were > 10 µM, > 10 µM and < 0.001 µM, respectively.

As to `Nc1n[nH]c2ccnc(-c3ccc(NS(=O)(=O)C(F)F)c(OCc4ccc(F)cc4)c3)c12` [Compound 68, N-(4-(3-amino-1H-pyrazolo[4,3-c]pyridin-4-yl)-2-((4-fluorophenyl)methoxy)phenyl)-1,1-difluoromethanesulfonamide], the Kd at human RIPK3 was > 10 µM; at human RIPK1, > 10 µM; on human MLKL (full length), 0.1 to 10 µM.

Regarding `C[C@H](Oc1cc(-c2nn(C)c3c(-c4cnn5c4CNCC5)cnc(N)c23)ccc1NS(=O)(=O)C(F)F)c1ccc(F)cc1` [Compound 90, (S)-N-(4-(4-amino-1-methyl-7-(4,5,6,7-tetrahydropyrazolo[1,5-a]pyrazin-3-yl)-1H-pyrazolo[4,3-c]pyridin-3-yl)-2-(1-(4-fluorophenyl)ethoxy)phenyl)-1,1-difluoromethanesulfonamide], the Kd is > 10 µM at human RIPK3, > 10 µM on human RIPK1 and 0.001 to 0.1 µM on human MLKL (full length).

In the case of `C[C@H](Oc1cc(-c2nn(C)c3c(-c4cnn5c4CN(C)CC5)cnc(N)c23)ccc1NS(=O)(=O)C(F)F)c1ccc(F)cc1` [Compound 91, (S)—N-(4-(4-amino-1-methyl-7-(5-methyl-4,5,6,7-tetrahydropyrazolo[1,5-a]pyrazin-3-yl)-1H-pyrazolo[4,3-c]pyridin-3-yl)-2-(1-(4-fluorophenyl)ethoxy)phenyl)-1,1-difluoromethanesulfonamide], the Kd was > 10 µM at human RIPK3, > 10 µM at human RIPK1 and 0.1 to 10 µM on human MLKL (full length).

On to `C[C@H](Oc1cc(-c2nn(C)c3c(-c4cnc(N5CCOCC5)nc4)cnc(N)c23)ccc1NS(=O)(=O)C(F)F)c1ccc(F)cc1` [Compound 110, (S)-N-(4-(4-amino-1-methyl-7-(2-morpholinopyrimidin-5-yl)-1H-pyrazolo[4,3-c]pyridin-3-yl)-2-(1-(4-fluorophenyl)ethoxy)phenyl)-1,1-difluoromethanesulfonamide], for which the values for the Kd at human RIPK3, at human RIPK1 and at human MLKL (full length) were > 10 µM, > 10 µM and < 0.001 µM, respectively.

As for `COC[C@@H](Oc1cc(-c2nn(C)c3c(-c4cnn(C5CCOCC5)c4)cnc(N)c23)ccc1NS(=O)(=O)C(F)F)c1ccc(F)cc1` [Compound 112, (S)—N-(4-(4-amino-1-methyl-7-(1-(tetrahydro-2H-pyran-4-yl)-1H-pyrazol-4-yl)-1H-pyrazolo[4,3-c]pyridin-3-yl)-2-(1-(4-fluorophenyl)-2-methoxyethoxy)phenyl)-1,1-difluoromethanesulfonamide], the Kd on human RIPK3 was > 10 µM; on human RIPK1, > 10 µM; on human MLKL (full length), 0.001 to 0.1 µM.

As for `C[C@H](Oc1cc(-c2nn(C)c3c(-c4cnn(C5CCOCC5)c4)cnc(N)c23)ccc1NS(=O)(=O)Cc1ccccc1)c1ccc(F)cc1` [Compound 127, (S)-N-(4-(4-amino-1-methyl-7-(1-(tetrahydro-2H-pyran-4-yl)-1H-pyrazol-4-yl)-1H-pyrazolo[4,3-c]pyridin-3-yl)-2-(1-(4-fluorophenyl)ethoxy)phenyl)-1-phenylmethanesulfonamide], the Kd at human MLKL (full length) was 0.001 to 0.1 µM.
